Experimental data from patent US12653830B2, “Substituted imidazoquinoxaline compounds and uses thereof” (Impact Therapeutics (Shanghai), Inc, priority 2019, dated 2026).
pIC50: −log10 of the molar value.

Assays:
[1] = tested on: human breast cancer cell MDA-MB-468; assay: MTT proliferation assay, MDA-MB-468; format: cell-based; settings: Homo sapiens, MDA-MB-468, 168 h, 7 days, single agent, read-out: IC50, inhibition of proliferation of MDA-MB-468
How it was run: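 Cells seeded overnight, then treated 7 days at 37 °C, 5% CO2 in RPMI 1640 + 5% FBS with 1% final DMSO, medium changed on day 4. MTT (0.5 mg/mL) for 4 h, DMSO-solubilised, absorbance at 552 and 693 nm; viability relative to DMSO after background subtraction, IC50 from log-concentration curves.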

[2] = biological target: T1, ATM kinase (Homo sapiens, UniProt Q13315); assay: In vitro ATM kinase assay (Cisbio HTRF, p53 substrate); format: biochemical; settings: 30 μM ATP
T1 construct: purchased Eurofins 14-933

[3] = tested on: human colon cancer cell SW620; assay: MTT proliferation assay in combination with CPT-11, SW620; format: cell-based; settings: Homo sapiens, SW-620, 120 h, medium containing 205 nM CPT-11, 5 days, read-out: IC50, inhibition of proliferation of SW620 combined with CPT-11
How it was run: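 SW620 cells in RPMI 1640 + 10% FBS are seeded overnight, then given compound in fresh medium containing 205 nM CPT-11 (1% DMSO final) for 5 days at 37 °C, 5% CO2. Viability is read by MTT (0.5 mg/mL, 4 h) at 552/690 nm, normalised to background-corrected DMSO wells. IC50 is taken from viability versus log concentration.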

T1 sequence (Q13315 whole entry): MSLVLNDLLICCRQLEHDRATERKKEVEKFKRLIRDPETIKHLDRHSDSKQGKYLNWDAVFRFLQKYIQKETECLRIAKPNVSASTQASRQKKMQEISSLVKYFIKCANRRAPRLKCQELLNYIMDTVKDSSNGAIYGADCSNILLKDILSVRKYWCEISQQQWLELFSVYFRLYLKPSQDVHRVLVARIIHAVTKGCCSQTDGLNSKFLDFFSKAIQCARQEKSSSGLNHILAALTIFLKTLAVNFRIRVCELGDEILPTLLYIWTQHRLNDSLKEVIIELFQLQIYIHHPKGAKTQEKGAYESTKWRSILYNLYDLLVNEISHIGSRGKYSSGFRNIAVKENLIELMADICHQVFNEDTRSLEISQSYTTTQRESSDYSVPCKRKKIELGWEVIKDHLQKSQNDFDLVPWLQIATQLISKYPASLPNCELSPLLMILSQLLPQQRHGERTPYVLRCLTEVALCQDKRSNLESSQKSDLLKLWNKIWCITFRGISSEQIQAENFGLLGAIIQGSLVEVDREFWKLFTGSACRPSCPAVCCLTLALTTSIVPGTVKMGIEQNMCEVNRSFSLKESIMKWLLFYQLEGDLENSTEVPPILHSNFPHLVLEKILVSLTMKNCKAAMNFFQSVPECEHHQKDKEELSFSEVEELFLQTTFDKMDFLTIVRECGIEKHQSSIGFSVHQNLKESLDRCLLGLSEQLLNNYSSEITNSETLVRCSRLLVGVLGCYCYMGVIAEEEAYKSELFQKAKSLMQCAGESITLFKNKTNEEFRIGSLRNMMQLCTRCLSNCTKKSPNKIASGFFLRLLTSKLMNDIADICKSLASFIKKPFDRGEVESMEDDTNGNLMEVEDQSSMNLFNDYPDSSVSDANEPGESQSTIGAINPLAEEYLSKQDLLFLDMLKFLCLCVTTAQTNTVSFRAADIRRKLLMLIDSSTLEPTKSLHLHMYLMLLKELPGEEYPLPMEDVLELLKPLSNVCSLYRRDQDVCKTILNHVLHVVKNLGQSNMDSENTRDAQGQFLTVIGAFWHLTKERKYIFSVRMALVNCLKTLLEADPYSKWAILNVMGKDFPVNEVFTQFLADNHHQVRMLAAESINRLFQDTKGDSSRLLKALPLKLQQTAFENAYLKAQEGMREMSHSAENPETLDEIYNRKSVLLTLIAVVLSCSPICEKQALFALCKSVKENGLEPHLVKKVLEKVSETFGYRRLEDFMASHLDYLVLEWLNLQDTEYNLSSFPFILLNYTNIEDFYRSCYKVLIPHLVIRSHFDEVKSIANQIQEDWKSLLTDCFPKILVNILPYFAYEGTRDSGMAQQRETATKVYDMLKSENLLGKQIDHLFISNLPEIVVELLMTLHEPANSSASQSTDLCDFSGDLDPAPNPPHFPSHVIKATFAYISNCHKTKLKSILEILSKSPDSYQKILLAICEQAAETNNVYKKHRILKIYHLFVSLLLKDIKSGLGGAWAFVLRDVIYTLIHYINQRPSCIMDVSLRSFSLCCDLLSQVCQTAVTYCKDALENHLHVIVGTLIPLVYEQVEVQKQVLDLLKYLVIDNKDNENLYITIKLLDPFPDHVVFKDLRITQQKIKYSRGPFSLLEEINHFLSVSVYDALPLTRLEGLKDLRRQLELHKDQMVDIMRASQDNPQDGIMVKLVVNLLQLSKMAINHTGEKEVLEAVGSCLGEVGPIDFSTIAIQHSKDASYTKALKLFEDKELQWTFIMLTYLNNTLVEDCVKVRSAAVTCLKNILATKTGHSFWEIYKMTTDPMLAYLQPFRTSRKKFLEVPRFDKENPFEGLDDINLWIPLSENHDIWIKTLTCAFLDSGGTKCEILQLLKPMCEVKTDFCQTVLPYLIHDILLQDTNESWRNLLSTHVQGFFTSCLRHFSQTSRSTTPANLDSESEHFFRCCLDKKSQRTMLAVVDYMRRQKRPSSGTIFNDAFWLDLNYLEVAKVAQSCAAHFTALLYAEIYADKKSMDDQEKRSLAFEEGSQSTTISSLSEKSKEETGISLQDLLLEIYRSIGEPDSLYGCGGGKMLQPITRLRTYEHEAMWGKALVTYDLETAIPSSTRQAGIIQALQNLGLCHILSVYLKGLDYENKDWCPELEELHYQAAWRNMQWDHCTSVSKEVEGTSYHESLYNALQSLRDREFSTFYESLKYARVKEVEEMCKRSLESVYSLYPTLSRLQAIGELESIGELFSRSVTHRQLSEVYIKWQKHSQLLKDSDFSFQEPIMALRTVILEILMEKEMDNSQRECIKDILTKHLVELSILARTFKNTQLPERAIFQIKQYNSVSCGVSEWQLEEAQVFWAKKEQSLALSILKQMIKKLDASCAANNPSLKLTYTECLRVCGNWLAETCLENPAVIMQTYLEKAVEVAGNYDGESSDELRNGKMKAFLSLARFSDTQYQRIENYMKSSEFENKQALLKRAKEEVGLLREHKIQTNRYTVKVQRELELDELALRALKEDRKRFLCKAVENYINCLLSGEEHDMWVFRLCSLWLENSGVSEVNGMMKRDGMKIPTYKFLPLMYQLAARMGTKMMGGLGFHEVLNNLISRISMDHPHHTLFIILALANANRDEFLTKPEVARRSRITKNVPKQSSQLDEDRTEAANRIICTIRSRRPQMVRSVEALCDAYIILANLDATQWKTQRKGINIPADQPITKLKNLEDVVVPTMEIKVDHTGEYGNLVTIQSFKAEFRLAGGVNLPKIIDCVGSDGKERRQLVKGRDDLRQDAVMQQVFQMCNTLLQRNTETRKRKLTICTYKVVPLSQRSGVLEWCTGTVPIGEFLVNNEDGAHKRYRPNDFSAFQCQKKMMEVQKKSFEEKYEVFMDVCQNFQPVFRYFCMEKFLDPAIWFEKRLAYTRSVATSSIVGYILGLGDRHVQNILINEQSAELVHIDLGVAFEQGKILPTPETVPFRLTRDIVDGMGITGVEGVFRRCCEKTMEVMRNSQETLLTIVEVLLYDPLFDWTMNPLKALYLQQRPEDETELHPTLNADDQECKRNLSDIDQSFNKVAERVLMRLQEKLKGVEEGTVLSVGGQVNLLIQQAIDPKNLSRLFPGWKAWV

Row | pIC50 [1] | pIC50 [2] | pIC50 [3] | SMILES
1 | 8.13 | 9.70 | 8.14 | Cc1nc(N2C[C@@H](C)O[C@@H](C)C2)n2c1cnc1ccc(-c3ccc(N4CCC(N(C)C)CC4)c(F)c3)cc12 [Example 39, 1-(4-(1-((2S,6R)-2,6-dimethylmorpholino)-3-methylimidazo[1,5-a]quinoxalin-8-yl)-2-fluorophenyl)-N,N-dimethylpiperidin-4-amine]
2 | 8.19 | 9.70 | 8.09 | Cc1nc(N2C[C@@H](C)O[C@@H](C)C2)n2c1cnc1ccc(-c3ccc(N4CCC(N(C)C)CC4)c(Cl)c3)cc12 [Example 40, 1-(2-chloro-4-(1-((2S,6R)-2,6-dimethylmorpholino)-3-methylimidazo[1,5-a]quinoxalin-8-yl)phenyl)-N,N-dimethylpiperidin-4-amine]
3 | 7.37 | 9.82 | 7.27 | CCc1nc(N2C[C@@H](C)O[C@@H](C)C2)n2c1cnc1ccc(-c3ccc(OCCCN(C)C)nc3)cc12 [Example 41, 3-((5-(1-((2S,6R)-2,6-dimethylmorpholino)-3-ethylimidazo[1,5-a]quinoxalin-8-yl)pyridin-2-yl)oxy)-N,N-dimethylpropan-1-amine]
4 | 7.78 | 9.39 | 7.75 | C[C@@H]1CN(c2ncc3cnc4ccc(-c5ccc(OCCCN(C)C)nc5)cc4n23)C[C@H](C)O1 [Example 43, 3-((5-(1-((2S,6R)-2,6-dimethylmorpholino)imidazo[1,5-a]quinoxalin-8-yl)pyridin-2-yl)oxy)-N,N-dimethylpropan-1-amine]
5 | 7.40 | 9.74 | 7.33 | Cc1nc(N2C[C@@H](C)O[C@@H](C)C2)n2c1cnc1ccc(-c3ccc(NCCCN(C)C)nc3)cc12 [Example 46, N^1-(5-(1-((2S,6R)-2,6-dimethylmorpholino)-3-methylimidazo[1,5-a]quinoxalin-8-yl)pyridin-2-yl)-N^3,N^3-dimethylpropane-1,3-diamine]
6 | 8.12 | 9.34 | 7.92 | Cc1nc(N2C[C@@H](C)O[C@@H](C)C2)n2c1cnc1ccc(-c3ccc(N4CCC(N)CC4)nc3)cc12 [Example 48, 1-(5-(1-((2S,6R)-2,6-dimethylmorpholino)-3-methylimidazo[1,5-a]quinoxalin-8-yl)pyridin-2-yl)piperidin-4-amine]
7 | 8.35 | 9.10 | 8.15 | CNC1CCN(c2ccc(-c3ccc4ncc5c(C)nc(N6C[C@@H](C)O[C@@H](C)C6)n5c4c3)cn2)CC1 [Example 49, 1-(5-(1-((2S,6R)-2,6-dimethylmorpholino)-3-methylimidazo[1,5-a]quinoxalin-8-yl)pyridin-2-yl)-N-methylpiperidin-4-amine]
8 | 8.09 | 9.39 | 8.20 | CCNC1CCN(c2ccc(-c3ccc4ncc5c(C)nc(N6C[C@@H](C)O[C@@H](C)C6)n5c4c3)cn2)CC1 [Example 50, 1-(5-(1-((2S,6R)-2,6-dimethylmorpholino)-3-methylimidazo[1,5-a]quinoxalin-8-yl)pyridin-2-yl)-N-ethylpiperidin-4-amine]
9 | 7.75 | 9.72 | 7.63 | Cc1nc(N2C[C@@H](C)O[C@@H](C)C2)n2c1cnc1ccc(-c3ccc(OCCCN4CCOCC4)nc3)cc12 [Example 58, (2S,6R)-2,6-dimethyl-4-(3-methyl-8-(6-(3-morpholinopropoxy)pyridin-3-yl)imidazo[1,5-a]quinoxalin-1-yl)morpholine]
10 | 8.04 | 9.72 | 7.92 | Cc1nc(N2C[C@@H](C)O[C@@H](C)C2)n2c1cnc1ccc(-c3ccc(OCCCN4CCN(C)CC4)nc3)cc12 [Example 59, (2S,6R)-2,6-dimethyl-4-(3-methyl-8-(6-(3-(4-methylpiperazin-1-yl)propoxy)pyridin-3-yl)imidazo[1,5-a]quinoxalin-1-yl)morpholine]
